Laboratory results published in patent US20250222003A1, “PHARMACEUTICAL COMPOSITION FOR TREATING SOLID TUMORS” (Eisai R&D Management Co., Ltd., priority 2021, published 2025).

Tested on: patients with a solid tumor
Details: human, in vivo
Experimental: This study was carried out as an open-label phase I clinical trial for Compound A. The study was composed of a dose-escalation part to evaluate the safety and tolerability of Compound A, and an expansion part to evaluate the safety, tolerability and preliminary efficacy of Compound A. Each dose in the Examples is expressed as a dose of Compound A in free form.
In the dose-escalation part, the safety and tolerability of Compound A was evaluated at a plurality of doses using a 3+3 design. The starting dose of Compound A was set at 10 mg BID (twice daily).
NCI CTCAE v5.0 was used to evaluate the severity.
This was performed using the analysis subject populations for all safety evaluations (excluding DLT evaluations).
Summary statistics for the safety data (continuous variables: number of cases, mean value, standard deviation, median, minimum and maximum values; categorical variables: number of cases and proportion) were calculated based on the actually administered treatments. […] The following laboratory tests were performed: hematological tests (red blood cell count, hemoglobin, hematocrit value, platelet count, white blood cell count, white blood cell fractions (neutrophils, lymphocytes, monocytes, eosinophils, basophils) coagulation test: INR), blood biochemical tests (liver function tests (AST, ALT, ALP, GGT, total bilirubin, direct bilirubin), renal function test (BUN, creatinine), other tests (blood glucose level, albumin, cholesterol, LDH, total protein, uric acid, amylase, lipase, Na, K, Cl, Ca, phosphorus, Mg, virus test: HBs antigen a, HBs antibody a, HBc antibody a, HCV antibody a, HIV antibody a, HBV DNAb, B-CTXc, 25-hydroxyvitamin Dd), and urine test (pH, protein, sugar, ketone bodies, occult blood, specific gravity)).

**Q.** How did the “Subjects with Any Treatment-related TEAEs, Any Grade, (%)” value turn out when `C=CCN1CC(=O)N2[C@@H](Cc3ccc(O)cc3F)C(=O)N(Cc3cccc(N4CC(N5CCN(CC)CC5)C4)n3)C[C@@H]2N1C(=O)NCc1ccccc1` [Compound A, (6S,9aS)—N-benzyl-8-({6-[3-(4-ethylpiperazin-1-yl)azetidin-1-yl]pyridin-2-yl}methyl)-6-(2-fluoro-4-hydroxybenzyl)-4,7-dioxo-2-(prop-2-en-1-yl)hexahydro-2H-pyrazino[2,1-c][1,2,4]triazine-1 (6H)-carboxamide] was run?
**A.** (89.3) %

**Q.** And the “Subjects with Any Treatment-related TEAEs, Grade ≥3, (%)” value?
**A.** (10.7) %

**Q.** And the “TEAE Alanine aminotransferase increased, Any Grade, (%)” value?
**A.** (14.3) %

**Q.** And the “TEAE Amylase increased, Any Grade, (%)” value?
**A.** (3.6) %

**Q.** What about the “TEAE Anemia, Any Grade, (%)” value of the same compound?
**A.** (10.7) %

**Q.** And the “TEAE Aspartate aminotransferase increased, Any Grade, (%)” value?
**A.** (14.3) %

**Q.** And the “TEAE C-telopeptide increased, Any Grade, (%)” value?
**A.** (3.6) %

**Q.** What about the “TEAE Decreased appetite, Any Grade, (%)” value of the same compound?
**A.** (10.7) %

**Q.** What about the “TEAE Decreased appetite, Grade ≥3, (%)” value of the same compound?
**A.** (7.1) %

**Q.** What about the “TEAE Diarrhea, Any Grade, (%)” value of the same compound?
**A.** (7.1) %

**Q.** And the “TEAE Electrocardiogram QT prolonged, Any Grade, (%)” value?
**A.** (3.6) %

**Q.** And the “TEAE Hyperphosphatemia, Any Grade, (%)” value?
**A.** (3.6) %

**Q.** What about the “TEAE Lipase increased, Any Grade, (%)” value of the same compound?
**A.** (3.6) %

**Q.** And the “TEAE Lipase increased, Grade ≥3, (%)” value?
**A.** (3.6) %

**Q.** And the “TEAE Liver disorder, Any Grade, (%)” value?
**A.** (3.6) %

**Q.** What about the “TEAE Nausea, Any Grade, (%)” value of the same compound?
**A.** (78.6) %

**Q.** And the “TEAE Osteoporosis, Any Grade, (%)” value?
**A.** (3.6) %

**Q.** What about the “TEAE Rash, Any Grade, (%)” value of the same compound?
**A.** (3.6) %

**Q.** And the “TEAE Sinus tachycardia, Any Grade, (%)” value?
**A.** (3.6) %

**Q.** What about the “TEAE Stomatitis, Any Grade, (%)” value of the same compound?
**A.** (3.6) %

**Q.** What about the “TEAE Vomiting, Any Grade, (%)” value of the same compound?
**A.** (67.9) %

**Q.** And the “TEAE White blood cell count decreased, Any Grade, (%)” value?
**A.** (7.1) %

**Q.** What about the recommended dose of the same compound?
**A.** less than 160 mg BID
